Experiment [1] addresses Platelet-derived growth factor receptor beta (Homo sapiens, UniProt P09619). Put plainly: Test concentration required to achieve 50% inhibition of tyrosine phosphorylation on human Platelet-derived growth factor receptor beta (PDGF RTK).
Experiment [2] concerns the target Epidermal growth factor receptor (Homo sapiens, UniProt P00533). Put plainly: Concentration required to achieve 50% inhibition of tyrosine phosphorylation on human Epidermal growth factor receptor (EGF RTK).
The target in the next experiment is FLK-1 receptor (Mus musculus, UniProt P35918). Put plainly: Concentration required to achieve 50% inhibition of tyrosine phosphorylation on murine VEGF receptor (FLK-1 RTK).
Experiment [3] deals with Receptor tyrosine-protein kinase erbB-2 (Homo sapiens, UniProt P04626). Put plainly: Concentration required to achieve 50% inhibition of tyrosine phosphorylation on human Her-2 receptor tyrosine kinase (HER-2 RTK).
Experiment [4] deals with Insulin-like growth factor 1 receptor (Homo sapiens, UniProt P08069). Put plainly: Concentration required to achieve 50% inhibition of tyrosine phosphorylation on human Insulin-like growth factor I receptor.

SMILES strings stand for the structures. pIC50: −log10 of the molar value. Bounds are passed on as bounds.

The text below walks through data of ChEMBL document CHEMBL1131018 (J Med Chem, 1998).

Chain of Receptor tyrosine-protein kinase erbB-2 (P04626 whole entry): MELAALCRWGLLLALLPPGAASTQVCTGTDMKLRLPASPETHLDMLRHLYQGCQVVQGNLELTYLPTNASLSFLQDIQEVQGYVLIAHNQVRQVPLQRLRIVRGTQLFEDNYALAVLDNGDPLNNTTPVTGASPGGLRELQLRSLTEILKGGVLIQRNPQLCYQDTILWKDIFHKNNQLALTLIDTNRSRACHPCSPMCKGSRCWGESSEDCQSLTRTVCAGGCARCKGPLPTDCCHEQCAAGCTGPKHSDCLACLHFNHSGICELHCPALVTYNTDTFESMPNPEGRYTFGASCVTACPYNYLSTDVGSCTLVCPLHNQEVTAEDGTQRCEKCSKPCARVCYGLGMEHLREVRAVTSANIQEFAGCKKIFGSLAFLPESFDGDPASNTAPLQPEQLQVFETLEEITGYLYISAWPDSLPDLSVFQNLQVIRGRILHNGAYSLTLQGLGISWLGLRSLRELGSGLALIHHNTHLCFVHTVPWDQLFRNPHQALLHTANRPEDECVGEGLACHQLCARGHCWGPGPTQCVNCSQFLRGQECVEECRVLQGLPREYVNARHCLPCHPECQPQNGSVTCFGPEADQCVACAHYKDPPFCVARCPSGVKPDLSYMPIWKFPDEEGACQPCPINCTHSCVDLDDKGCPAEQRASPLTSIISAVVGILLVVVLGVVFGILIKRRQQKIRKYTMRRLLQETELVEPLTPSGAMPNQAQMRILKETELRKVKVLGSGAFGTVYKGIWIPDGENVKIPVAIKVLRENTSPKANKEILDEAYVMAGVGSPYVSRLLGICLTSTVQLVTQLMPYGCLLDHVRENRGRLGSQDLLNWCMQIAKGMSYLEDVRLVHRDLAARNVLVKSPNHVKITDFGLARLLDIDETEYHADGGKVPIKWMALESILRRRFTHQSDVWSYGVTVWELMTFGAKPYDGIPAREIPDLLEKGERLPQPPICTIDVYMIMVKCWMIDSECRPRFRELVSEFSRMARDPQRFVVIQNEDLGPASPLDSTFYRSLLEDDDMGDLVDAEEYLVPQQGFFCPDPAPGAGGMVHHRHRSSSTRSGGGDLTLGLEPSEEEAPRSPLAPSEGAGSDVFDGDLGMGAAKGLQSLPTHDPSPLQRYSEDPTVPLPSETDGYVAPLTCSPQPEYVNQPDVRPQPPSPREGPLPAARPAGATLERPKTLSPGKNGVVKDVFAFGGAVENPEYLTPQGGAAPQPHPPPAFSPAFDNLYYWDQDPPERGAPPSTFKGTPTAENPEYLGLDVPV
Chain of FLK-1 receptor (P35918 whole entry, looked up): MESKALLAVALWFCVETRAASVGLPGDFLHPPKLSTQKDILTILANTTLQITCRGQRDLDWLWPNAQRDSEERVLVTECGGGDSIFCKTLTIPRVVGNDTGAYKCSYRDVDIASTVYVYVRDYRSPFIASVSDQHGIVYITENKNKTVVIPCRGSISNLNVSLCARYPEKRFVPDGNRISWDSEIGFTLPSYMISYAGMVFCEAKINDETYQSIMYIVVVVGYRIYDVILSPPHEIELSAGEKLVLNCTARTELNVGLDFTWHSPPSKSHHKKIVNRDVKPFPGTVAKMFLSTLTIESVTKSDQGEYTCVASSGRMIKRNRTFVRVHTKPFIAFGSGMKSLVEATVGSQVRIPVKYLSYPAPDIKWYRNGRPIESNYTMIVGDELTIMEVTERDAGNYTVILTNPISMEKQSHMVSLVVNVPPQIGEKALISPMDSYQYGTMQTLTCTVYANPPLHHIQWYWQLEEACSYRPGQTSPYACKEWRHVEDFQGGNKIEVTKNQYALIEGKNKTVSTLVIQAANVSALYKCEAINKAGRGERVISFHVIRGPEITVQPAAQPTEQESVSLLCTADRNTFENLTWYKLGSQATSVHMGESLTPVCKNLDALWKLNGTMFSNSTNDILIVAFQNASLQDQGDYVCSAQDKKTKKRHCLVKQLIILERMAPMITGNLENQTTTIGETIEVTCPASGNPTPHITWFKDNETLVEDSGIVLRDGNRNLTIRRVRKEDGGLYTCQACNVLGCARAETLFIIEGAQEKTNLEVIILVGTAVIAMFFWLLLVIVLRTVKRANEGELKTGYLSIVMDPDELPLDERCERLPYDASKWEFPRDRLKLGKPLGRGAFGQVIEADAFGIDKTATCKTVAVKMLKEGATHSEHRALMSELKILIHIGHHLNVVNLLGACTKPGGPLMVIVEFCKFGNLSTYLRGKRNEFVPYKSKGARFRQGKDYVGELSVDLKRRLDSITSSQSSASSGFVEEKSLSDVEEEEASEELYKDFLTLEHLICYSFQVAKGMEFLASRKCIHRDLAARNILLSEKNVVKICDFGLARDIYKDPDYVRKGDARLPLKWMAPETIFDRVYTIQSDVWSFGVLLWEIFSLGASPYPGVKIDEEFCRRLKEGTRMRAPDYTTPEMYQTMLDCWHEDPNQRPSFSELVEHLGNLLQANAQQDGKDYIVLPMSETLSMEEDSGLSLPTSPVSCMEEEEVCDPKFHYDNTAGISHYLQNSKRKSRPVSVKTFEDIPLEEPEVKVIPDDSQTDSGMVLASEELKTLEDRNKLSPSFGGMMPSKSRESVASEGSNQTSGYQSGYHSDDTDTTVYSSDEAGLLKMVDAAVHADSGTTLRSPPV
Chain of Platelet-derived growth factor receptor beta (P09619 whole entry): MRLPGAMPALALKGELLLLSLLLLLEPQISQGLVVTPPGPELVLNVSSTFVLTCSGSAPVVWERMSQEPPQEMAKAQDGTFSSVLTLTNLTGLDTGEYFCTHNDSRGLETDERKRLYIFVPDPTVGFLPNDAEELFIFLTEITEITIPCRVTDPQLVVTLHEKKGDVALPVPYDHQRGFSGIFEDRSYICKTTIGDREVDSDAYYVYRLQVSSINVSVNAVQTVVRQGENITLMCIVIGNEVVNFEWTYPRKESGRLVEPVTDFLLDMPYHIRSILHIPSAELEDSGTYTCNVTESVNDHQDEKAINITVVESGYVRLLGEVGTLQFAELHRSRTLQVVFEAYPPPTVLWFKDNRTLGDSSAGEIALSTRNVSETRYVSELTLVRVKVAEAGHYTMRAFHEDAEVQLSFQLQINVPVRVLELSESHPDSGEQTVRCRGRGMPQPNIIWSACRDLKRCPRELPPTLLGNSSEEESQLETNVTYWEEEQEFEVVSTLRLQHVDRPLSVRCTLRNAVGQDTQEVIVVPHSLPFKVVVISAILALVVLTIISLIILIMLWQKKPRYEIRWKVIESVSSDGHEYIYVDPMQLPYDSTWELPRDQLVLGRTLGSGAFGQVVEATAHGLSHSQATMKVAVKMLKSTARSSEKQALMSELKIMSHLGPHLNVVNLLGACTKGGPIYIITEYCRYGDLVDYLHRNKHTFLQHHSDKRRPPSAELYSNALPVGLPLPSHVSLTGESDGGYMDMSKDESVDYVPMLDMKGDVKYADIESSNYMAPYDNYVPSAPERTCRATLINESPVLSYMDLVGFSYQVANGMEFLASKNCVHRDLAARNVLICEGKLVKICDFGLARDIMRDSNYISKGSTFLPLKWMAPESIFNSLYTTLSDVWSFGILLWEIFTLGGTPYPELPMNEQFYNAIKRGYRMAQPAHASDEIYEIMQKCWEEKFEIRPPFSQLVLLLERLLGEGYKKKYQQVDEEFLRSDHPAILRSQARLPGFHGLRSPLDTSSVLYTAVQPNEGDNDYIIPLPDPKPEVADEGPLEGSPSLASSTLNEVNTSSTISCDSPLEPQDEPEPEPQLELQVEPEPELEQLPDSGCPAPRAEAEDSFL
Chain of Insulin-like growth factor 1 receptor (P08069 31-736 limits assumed): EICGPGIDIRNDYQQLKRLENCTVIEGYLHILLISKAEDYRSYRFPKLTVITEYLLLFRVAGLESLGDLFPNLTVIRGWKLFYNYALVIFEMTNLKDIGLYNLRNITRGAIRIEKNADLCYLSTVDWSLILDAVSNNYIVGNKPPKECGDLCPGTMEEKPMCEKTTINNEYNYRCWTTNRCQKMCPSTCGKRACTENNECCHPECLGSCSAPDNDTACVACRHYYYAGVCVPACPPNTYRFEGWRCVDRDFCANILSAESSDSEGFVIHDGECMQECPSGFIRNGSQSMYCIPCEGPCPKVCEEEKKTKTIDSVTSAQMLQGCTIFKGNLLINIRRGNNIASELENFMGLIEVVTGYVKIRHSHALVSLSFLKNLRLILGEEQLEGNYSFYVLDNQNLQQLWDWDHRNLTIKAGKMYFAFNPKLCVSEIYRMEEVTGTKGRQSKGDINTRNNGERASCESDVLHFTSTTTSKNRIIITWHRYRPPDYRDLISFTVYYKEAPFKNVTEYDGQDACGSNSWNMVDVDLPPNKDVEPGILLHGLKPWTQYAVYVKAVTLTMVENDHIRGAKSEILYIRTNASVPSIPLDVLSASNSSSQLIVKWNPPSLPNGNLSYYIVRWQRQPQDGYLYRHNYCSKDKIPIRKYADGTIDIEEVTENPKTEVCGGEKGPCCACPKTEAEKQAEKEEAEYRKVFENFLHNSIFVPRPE
Chain of Insulin-like growth factor 1 receptor (P08069 741-1367 limits assumed): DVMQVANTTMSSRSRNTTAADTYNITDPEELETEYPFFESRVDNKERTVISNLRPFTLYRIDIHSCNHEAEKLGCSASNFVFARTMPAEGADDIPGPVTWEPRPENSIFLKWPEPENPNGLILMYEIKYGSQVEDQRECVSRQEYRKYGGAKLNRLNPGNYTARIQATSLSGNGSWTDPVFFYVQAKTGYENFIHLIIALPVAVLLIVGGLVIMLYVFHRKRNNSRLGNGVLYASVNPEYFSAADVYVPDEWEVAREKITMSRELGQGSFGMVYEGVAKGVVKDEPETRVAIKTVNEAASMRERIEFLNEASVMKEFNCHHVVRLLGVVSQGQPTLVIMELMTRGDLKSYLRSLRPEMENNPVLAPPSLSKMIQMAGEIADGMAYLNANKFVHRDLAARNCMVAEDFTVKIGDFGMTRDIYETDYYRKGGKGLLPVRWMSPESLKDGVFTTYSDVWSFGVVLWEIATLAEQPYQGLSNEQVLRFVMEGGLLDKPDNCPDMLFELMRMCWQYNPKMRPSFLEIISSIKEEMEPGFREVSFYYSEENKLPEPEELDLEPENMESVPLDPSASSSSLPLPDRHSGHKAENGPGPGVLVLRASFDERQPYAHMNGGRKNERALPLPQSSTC

`O=C1Nc2ccccc2/C1=C/c1ccc(C(=O)O)cc1`: the negative logarithm of the IC50 (pIC50) (in experiment [1]; in experiment [2]; on FLK-1 receptor; in experiment [3]; in experiment [4]) was < 4.00 throughout.
Turning to `CN1C(=O)/C(=C\c2ccc(Br)cc2)c2ccccc21`, the negative-log IC50 (pIC50) was < 4.00 in experiment [1]; < 4.00 in experiment [2]; < 4.00 against FLK-1 receptor; 4.65 in experiment [3]; < 4.00 in experiment [4].
`COC(=O)CCc1c[nH]c(/C=C2\C(=O)Nc3ccccc32)c1C`: the pIC50 is 4.18 in experiment [1]; < 4.00 in experiment [2]; 5.20 at FLK-1 receptor; < 4.00 in experiment [3]; < 4.00 in experiment [4].
Take `Cc1c[nH]c(/C=C2\C(=O)Nc3ccccc32)c1C`: the negative-log IC50 (pIC50) in experiment [1] is < 4.00; in experiment [2] it was < 4.00; against FLK-1 receptor, 5.57; in experiment [3] it was < 4.00; in experiment [4], < 4.00.
In the case of `CN(C)c1ccc(/C=C2\C(=O)Nc3cc(F)ccc32)cc1`, the pIC50 is 4.18 in experiment [1]; < 4.00 in experiment [2]; 5.34 against FLK-1 receptor; < 4.00 in experiment [3]; < 4.00 in experiment [4].
Regarding `CCc1c(C)[nH]c(/C=C2\C(=O)Nc3ccccc32)c1C`, the pIC50 (in experiment [1]; in experiment [2]; against FLK-1 receptor; in experiment [3]; in experiment [4]) was < 4.00 in each case.
Turning to `O=C1Nc2ccc(Cl)cc2/C1=C/c1ccc[nH]1`, the pIC50 in experiment [1] is 4.07; in experiment [2] it was < 4.00; on FLK-1 receptor, 5.52; in experiment [3], < 4.00; in experiment [4], < 4.00.
On to `COc1ccc(/C=C2\C(=O)Nc3ccc(Cl)cc32)cc1C(C)(C)C`, for which the pIC50 in experiment [1] is < 4.00; in experiment [2], 4.71; against FLK-1 receptor, < 4.00; in experiment [3], 4.79; in experiment [4] it was < 4.00.
On to `Cn1cccc1/C=C1\C(=O)Nc2ccccc21`, for which the pIC50 in experiment [1] is < 4.00; in experiment [2] it was < 4.00; at FLK-1 receptor, 4.69; in experiment [3], < 4.00; in experiment [4], < 4.00.
For `Cc1cc(C)c(/C=C2\C(=O)Nc3cc(F)ccc32)[nH]1`, the pIC50 is 4.74 in experiment [1]; < 4.00 in experiment [2]; > 6.11 on FLK-1 receptor; < 4.00 in experiment [3]; < 4.00 in experiment [4].
For the compound `O=C1Nc2ccc([N+](=O)[O-])cc2/C1=C/c1ccc[nH]1`, the pIC50 in experiment [1] was 4.38; in experiment [2], < 4.00; against FLK-1 receptor, < 4.00; in experiment [3], < 4.00; in experiment [4], < 4.00.
As to `Cc1ccc(/C=C2/C(=O)Nc3ccccc32)o1`, the negative-log IC50 (pIC50) in experiment [1] is < 4.00; in experiment [2] it was < 4.00; on FLK-1 receptor, 4.13; in experiment [3], < 4.00; in experiment [4], < 4.00.
